Test: Solubility of olanzapine pamoate salts as a function of pH
Assay type: physicochemical
Conditions: particularly in the range of pH 4 to 8

Cc1cc2c(s1)Nc1ccccc1N=C2N1CCN(C)CC1.O=C(O)c1cc2ccccc2c(Cc2c(O)c(C(=O)O)cc3ccccc23)c1O [olanzapine pamoate, 2-methyl-4-(4-methyl-1-piperazinyl)-10H-thieno[2,3-b][1,5]benzodiazepine pamoate]
solubility, dependence on pH: somewhat independent of pH

From patent US6617321B2, “2-methyl-thieno-benzodiazepine formulation” (Eli Lilly and Company, priority 1997, dated 2003)
